# Experimental data reported in patent US20240174679A1, “HETEROAROYL AMIDES AS LRRK2 INHIBITORS, PHARMACEUTICAL COMPOSITIONS, AND USES THEREOF” (MERCK SHARP & DOHME LLC, priority 2021, published 2024).
# Target: GST tagged truncated human mutant G2019S LRRK2 (Homo sapiens (Human), UniProt Q5S007, G2019S)
# Assay: LRRK2 Km ATP LanthaScreen Assay
# Format: biochemical
# Details: 134 μM ATP (Km ATP), LRRKtide substrate, negative log of mean IC50 (molar)
# Description: Unless otherwise noted, all reactions are magnetically stirred. Unless otherwise noted, when diethyl ether is used in the experiments described below, it is Fisher ACS certified material and is stabilized with BHT. Unless otherwise noted, “concentrated” and/or “solvent removed under reduced pressure” means evaporating the solvent from a solution or mixture using a rotary evaporator or vacuum pump. Unless otherwise noted, flash chromatography is carried out on a Teledyne Isco (Lincoln, NE), Analogix (Burlington, WI), or Biotage (Stockholm, SWE) automated chromatography system using a commercially available cartridge as the column. Columns may be purchased from Teledyne Isco, Analogix, Biotage, Varian (Palo Alto, CA), or Supelco (Bellefonte, PA) and are usually filled with silica gel as the stationary phase. Reversed phase preparative HPLC conditions, where used, can be found at the end of each experimental section. Aqueous solutions were concentrated on a Genevac (Ipswich, ENG) or by freeze-drying/lyophilization. Unless otherwise noted, all LRRK2 pIC50 data presented in tables refers to the LRRK2 G2019S Km ATP LanthaScreen™ assay (Life Technologies Corp., Carlsbad, CA) that is described in the Biological Assay section.
# Biological Assay: LRRK2 Km ATP LanthaScreen™ Assay
# Compound potency against LRRK2 kinase activity was determined using LanthaScreen™ technology from Life Technologies Corporation (Carlsbad, CA) using a GST20 tagged truncated human mutant G2019S LRRK2 in the presence of the fluorescein-labeled peptide substrate LRRKtide® (LRRK2 phosphorylated ezrin/radixin/moesin (ERM)), also from Life Technologies. The data presented for the Km ATP LanthaScreen™ Assay represents mean IC50 values based on several test results and may have reasonable deviations depending on the specific conditions and reagents used. Km is the Michaelis constant of an enzyme and is defined as the concentration of native substrate (ATP for a kinase) which permits the enzyme to achieve half Vmax (Vmax=rate of reaction when the enzyme is saturated with substrate). IC50 (half-maximal inhibitory concentration) represents the concentration of inhibitor required to inhibit LRRK2 kinase activity by 50%. Assays were performed in the presence of 134 μM ATP (Km ATP). Upon completion, the assay was stopped, and phosphorylated substrate detected with a terbium (Tb)-labeled anti-pERM antibody (cat. no. PV4898). The compound dose response was prepared by diluting a 10 mM stock of compound to a maximum concentration of 9.99 μM in 100% DMSO, followed by custom fold serial dilution in DMSO nine times. 20 nL of each dilution was spotted via a Labcyte Echo onto a 384-well black-sided plate (Corning 3575) followed by 15 μL of a 1.25 nM enzyme solution in 1× assay buffer (50 mM Tris pH 8.5, 10 mM MgCl2, 0.01% Brij-35, 1 mM EGTA, 2 mM dithiothreitol, 0.05 mM sodium orthovanadate). Following a 15-min incubation period at rt, the kinase reaction was started with the addition of 5 μL of 400 nM fluorescein-labeled LRRKtide® (LRRK2 phosphorylated ezrin/radixin/moesin (ERM)) peptide substrate and 134 μM ATP solution in 1× assay buffer. The reaction was allowed to progress at ambient temperature for 90 min. The reaction was then stopped by the addition of 20 μL of TR-FRET Dilution Buffer (Life Technologies, Carlsbad, CA) containing 2 nM Tb-labeled anti-phospho LRRKtide® (LRRK2 phosphorylated ezrin/radixin/moesin (ERM)) antibody and 10 mM EDTA (Life Technologies, Carlsbad, CA). After an incubation period of 1 h at rt, the plate was read on an EnVision® multimode plate reader (Perkin Elmer, Waltham, MA) with an excitation wavelength of 337 nm (Laser) and a reading emission at both 520 and 495 nm. Compound IC50 values were interpolated from nonlinear regression best-fits of the log of the final compound concentration, plotted as a function of the 520/495-nm emission ratio using activity base “Abase”). Abase uses a 4 parameter (4P) logistic fit based on the Levenberg-Marquardt algorithm. […]
# GST tagged truncated human mutant G2019S LRRK2, sequence (Q5S007 970-2527 G2019S): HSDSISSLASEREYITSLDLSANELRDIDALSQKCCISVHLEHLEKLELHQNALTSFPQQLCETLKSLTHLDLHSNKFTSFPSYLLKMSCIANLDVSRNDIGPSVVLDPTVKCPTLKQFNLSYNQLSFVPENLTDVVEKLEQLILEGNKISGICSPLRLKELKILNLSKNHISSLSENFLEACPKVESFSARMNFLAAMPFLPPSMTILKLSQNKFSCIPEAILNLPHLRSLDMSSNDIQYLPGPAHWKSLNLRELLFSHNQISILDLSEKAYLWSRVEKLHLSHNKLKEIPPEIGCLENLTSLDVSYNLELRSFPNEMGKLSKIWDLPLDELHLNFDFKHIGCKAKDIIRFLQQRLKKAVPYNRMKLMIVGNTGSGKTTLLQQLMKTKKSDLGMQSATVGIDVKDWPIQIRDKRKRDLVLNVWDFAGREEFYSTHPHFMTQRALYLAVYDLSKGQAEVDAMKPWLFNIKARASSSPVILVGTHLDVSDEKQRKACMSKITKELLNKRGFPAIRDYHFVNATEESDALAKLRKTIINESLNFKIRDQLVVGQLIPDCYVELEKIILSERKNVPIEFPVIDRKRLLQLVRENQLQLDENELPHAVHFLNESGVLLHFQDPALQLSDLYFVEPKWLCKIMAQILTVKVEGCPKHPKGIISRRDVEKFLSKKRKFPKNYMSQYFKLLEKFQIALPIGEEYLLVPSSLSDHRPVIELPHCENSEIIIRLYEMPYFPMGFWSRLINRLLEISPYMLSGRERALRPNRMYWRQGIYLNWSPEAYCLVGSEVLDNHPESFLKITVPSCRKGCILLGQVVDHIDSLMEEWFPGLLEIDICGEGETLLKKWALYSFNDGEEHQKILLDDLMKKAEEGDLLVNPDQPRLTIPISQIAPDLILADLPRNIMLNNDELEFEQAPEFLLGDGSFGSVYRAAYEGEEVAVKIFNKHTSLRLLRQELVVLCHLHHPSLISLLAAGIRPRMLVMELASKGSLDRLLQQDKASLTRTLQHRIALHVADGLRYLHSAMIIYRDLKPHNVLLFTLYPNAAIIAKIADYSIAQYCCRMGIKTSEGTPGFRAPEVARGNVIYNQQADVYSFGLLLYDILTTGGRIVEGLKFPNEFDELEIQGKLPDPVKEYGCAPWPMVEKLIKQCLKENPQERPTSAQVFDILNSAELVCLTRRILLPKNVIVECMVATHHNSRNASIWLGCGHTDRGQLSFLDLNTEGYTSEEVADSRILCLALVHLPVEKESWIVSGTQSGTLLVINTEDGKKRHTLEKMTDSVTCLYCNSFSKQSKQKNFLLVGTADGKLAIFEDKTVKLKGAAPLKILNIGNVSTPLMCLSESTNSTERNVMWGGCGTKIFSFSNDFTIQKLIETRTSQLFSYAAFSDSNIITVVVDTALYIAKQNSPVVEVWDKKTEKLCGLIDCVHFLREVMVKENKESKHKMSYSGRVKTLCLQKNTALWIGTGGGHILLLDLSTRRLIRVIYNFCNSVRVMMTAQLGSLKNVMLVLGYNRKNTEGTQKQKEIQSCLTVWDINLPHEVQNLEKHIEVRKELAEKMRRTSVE
row,Structure (SMILES),LRRK2 pIC50
1,"Cc1nn(C(C)C2CC2)cc1NC(=O)c1csc(-c2cn[nH]c2)n1 (single isomer, unassigned) [Example 2-3, (R)- or (S)-N-{1-[1-cyclopropylethyl]-3-methyl-1H-pyrazol-4-yl}-2-(1H-pyrazol-4-yl)-1,3-thiazole-4-carboxamide]",6.99
2,"Cc1nn(C(C)C2CC2)cc1NC(=O)c1csc(-c2cn[nH]c2)n1 (single isomer, unassigned) [Example 2-4, (S)- or (R)-N-{1-[1-cyclopropylethyl]-3-methyl-1H-pyrazol-4-yl}-2-(1H-pyrazol-4-yl)-1,3-thiazole-4-carboxamide]",6.82
3,"CC(C1CC1)n1ncc(NC(=O)c2csc(-c3cn[nH]c3)n2)c1C(F)F (single isomer, unassigned) [Example 3-4, (R)- or (S)—N-(1-(1-cyclopropylethyl)-5-(difluoromethyl)-1H-pyrazol-4-yl)-2-(1H-pyrazol-4-yl)thiazole-4-carboxamide]",5.69
4,"CC(C1CC1)n1ncc(NC(=O)c2csc(-c3cn[nH]c3)n2)c1C(F)F (single isomer, unassigned) [Example 3-5, (S)- or (R)—N-(1-(1-cyclopropylethyl)-5-(difluoromethyl)-1H-pyrazol-4-yl)-2-(1H-pyrazol-4-yl)thiazole-4-carboxamide]",5.92
5,"O=C(Nc1cnn(C2CCC2)c1)c1csc(-c2cn[nH]c2)n1 [Example 1-1, N-(1-Cyclobutyl-1H-pyrazol-4-yl)-2-(1H-pyrazol-4-yl)thiazole-4-carboxamide]",8.01
6,"COc1nn(CC(F)(F)F)cc1NC(=O)c1csc(-c2cn[nH]c2)n1 [Example 1-2, N-(3-Methoxy-1-(2,2,2-trifluoroethyl)-1H-pyrazol-4-yl)-2-(1H-pyrazol-4-yl)thiazole-4-carboxamide]",7.46
7,"Cc1nn(C2CCC2)cc1NC(=O)c1csc(-c2cn[nH]c2)n1 [Example 1-3, N-(1-Cyclobutyl-3-methyl-1H-pyrazol-4-yl)-2-(1H-pyrazol-4-yl)thiazole-4-carboxamide]",7.83
8,"CNC(=O)c1nn(C)cc1NC(=O)c1csc(-c2cn[nH]c2)n1 [Example 1-4, N-[1-methyl-3-(methylcarba-moyl)-1H-pyrazol-4-yl]-2-(1H-pyrazol-4-yl)-1,3-thiazole-4-carboxamide]",8.15
9,"Cc1nn(C(F)F)cc1NC(=O)c1csc(-c2cn[nH]c2)n1 [Example 1-5, N-[1-(difluoromethyl)-3-methyl-1H-pyrazol-4-yl]-2-(1H-pyrazol-4-yl)-1,3-thiazole-4-carboxamide]",7.08
10,"O=C(Nc1cn(C2CC2)nc1C1CC1)c1csc(-c2cn[nH]c2)n1 [Example 1-6, N-(1,3-dicyclopropyl-1H-pyrazol-4-yl)-2-(1H-pyrazol-4-yl)-1,3-thiazole-4-carboxamide]",7.84
11,"CC(C)n1cc(NC(=O)c2csc(-c3cn[nH]c3)n2)c(OCC(F)(F)F)n1 [Example 1-7, N-[1-(1-methylethyl)-3-(2,2,2-trifluoroethoxy)-1H-pyrazol-4-yl]-2-(1H-pyrazol-4-yl)-1,3-thiazole-4-carboxamide]",7.17
12,"O=C(Nc1cnn(-c2ccncc2)c1)c1csc(-c2cn[nH]c2)n1 [Example 1-8, 2-(1H-pyrazol-4-yl)-N-(1-pyridin-4-yl-1H-pyrazol-4-yl)-1,3-thiazole-4-carboxamide]",8.07
13,"Cn1cc(NC(=O)c2csc(-c3cn[nH]c3)n2)c(-c2ccncc2)n1 [Example 1-9, N-(1-methyl-3-pyridin-4-yl-1H-pyrazol-4-yl)-2-(1H-pyrazol-4-yl)-1,3-thiazole-4-carboxamide]",7.09
14,"CCn1cc(NC(=O)c2csc(-c3cn[nH]c3)n2)c(C#N)n1 [Example 1-10, N-(3-cyano-1-ethyl-1H-pyrazol-4-yl)-2-(1H-pyrazol-4-yl)-1,3-thiazole-4-carboxamide]",7.30
15,"Cn1cc(NC(=O)c2csc(-c3cn[nH]c3)n2)c(-c2ccc(F)cc2)n1 [Example 1-11, N-[3-(4-fluorophenyl)-1-methy1-1H-pyrazol-4-yl]-2-(1H-pyrazol-4-yl)-1,3-thiazole-4-carboxamide]",7.90
16,"CCn1cc(NC(=O)c2csc(-c3cn[nH]c3)n2)c(-c2nnc3n2CCCC3)n1 [Example 1-12, N-[1-ethyl-3-(5,6,7,8-tetrahydro[1,2,4]triazolo[4,3-a]pyridin-3-yl)-1H-pyrazol-4-yl]-2-(1H-pyrazol-4-yl)-1,3-thiazole-4-carboxamide]",7.53
17,"Cn1cc(NC(=O)c2csc(-c3cn[nH]c3)n2)c(C(N)=O)n1 [Example 1-13, N-(3-carbamoyl-1-methyl-1H-pyrazol-4-yl)-2-(1H-pyrazol-4-yl)-1,3-thiazole-4-carboxamide]",8.17
18,"COc1nn(C)cc1NC(=O)c1csc(-c2cn[nH]c2)n1 [Example 1-14, N-(3-methoxy-1-methyl-1H-pyrazol-4-yl)-2-(1H-pyrazol-4-yl)-1,3-thiazole-4-carboxamide]",7.13
19,"Cn1cc(NC(=O)c2csc(-c3cn[nH]c3)n2)c(C(F)F)n1 [Example 1-15, N-[3-(difluoromethyl)-1-methyl-1H-pyrazol-4-yl]-2-(1H-pyrazol-4-yl)-1,3-thiazole-4-carboxamide]",7.79
20,"CC(C)Oc1nn(C)cc1NC(=O)c1csc(-c2cn[nH]c2)n1 [Example 1-16, N-[1-methyl-3-(1-methylethoxy)-1H-pyrazol-4-yl]-2-(1H-pyrazol-4-yl)-1,3-thiazole-4-carboxamide]",7.43
21,"CC(C)(C)n1cc(NC(=O)c2csc(-c3cn[nH]c3)n2)cn1 [Example 1-17, N-(1-tert-butyl-1H-pyrazol-4-yl)-2-(1H-pyrazol-4-yl)-1,3-thiazole-4-carboxamide]",7.22
22,"O=C(Nc1cnn(C2CC2)c1)c1coc(-c2cn[nH]c2)n1 [Example 1-18, N-(1-cyclopropyl-1H-pyrazol-4-yl)-2-(1H-pyrazol-4-yl)-1,3-oxazole-4-carboxamide]",6.75
23,"COC(=O)c1nn(C)cc1NC(=O)c1csc(-c2cn[nH]c2)n1 [Example 1-19, methyl 1-methyl-4-({[2-(1H-pyrazol-4-yl)-1,3-thiazol-4-yl]carbonyl}amino)-1H-pyrazole-3-carboxylate]",8.66
24,"CC(C)n1cc(NC(=O)c2csc(-c3cn[nH]c3)n2)cn1 [Example 1-20, N-[1-(1-methylethyl)-1H-pyrazol-4-yl]-2-(1H-pyrazol-4-yl)-1,3-thiazole-4-carboxamide]",7.68

# Same assay, conditions: 134 μM ATP (Km ATP), LRRKtide substrate, negative log of mean IC50 (molar), read-out: LRRK2 pIC50 (converted)
row,Structure (SMILES),IC50
1,"CC(C1CC1)n1cc(NC(=O)c2csc(-c3cn[nH]c3)n2)cn1 (single isomer, unassigned) [Example 2-1, (R)- or (S)—N-(1-(1-cyclopropylethyl)-1H-pyrazol-4-yl)-2-(1H-pyrazol-4-yl)thiazole-4-carboxamide]",32.4 nM
2,"CC(C1CC1)n1cc(NC(=O)c2csc(-c3cn[nH]c3)n2)cn1 (single isomer, unassigned) [Example 2-2, (S)- or (R)—N-(1-(1-cyclopropylethyl)-1H-pyrazol-4-yl)-2-(1H-pyrazol-4-yl)thiazole-4-carboxamide]",38 nM
